# From the NIST ThermoML archive (doi:10.1016/j.fluid.2011.02.015)
# ± gives the expanded uncertainty stated by the source.
# Details: Liquid, hot wire
smiles,measurement,setting,value
"FC(F)(F)CC(F)(F)F [1,1,1,3,3,3-hexafluoropropane]",thermal conductivity,"252.57 K, 10000 kPa",0.0912 ± 0.0045 W/m/K
same,thermal conductivity,"252.8 K, 5000 kPa",0.0891 ± 0.0045 W/m/K
same,thermal conductivity,"252.87 K, 100 kPa",0.0873 ± 0.0044 W/m/K
same,thermal conductivity,"252.92 K, 10000 kPa",0.0914 ± 0.0046 W/m/K
same,thermal conductivity,"253.16 K, 5000 kPa",0.0887 ± 0.0044 W/m/K
same,thermal conductivity,"253.24 K, 20000 kPa",0.0955 ± 0.0047 W/m/K
same,thermal conductivity,"253.38 K, 100 kPa",0.0872 ± 0.0044 W/m/K
same,thermal conductivity,"253.41 K, 30000 kPa",0.0972 ± 0.0048 W/m/K
same,thermal conductivity,"253.47 K, 20000 kPa",0.0949 ± 0.0047 W/m/K
same,thermal conductivity,"253.51 K, 20000 kPa",0.0952 ± 0.0047 W/m/K
same,thermal conductivity,"253.6 K, 10000 kPa",0.0911 ± 0.0045 W/m/K
same,thermal conductivity,"253.65 K, 5000 kPa",0.0891 ± 0.0045 W/m/K
same,thermal conductivity,"253.66 K, 100 kPa",0.0872 ± 0.0044 W/m/K
same,thermal conductivity,"253.86 K, 30000 kPa",0.0971 ± 0.0048 W/m/K
same,thermal conductivity,"255.05 K, 30000 kPa",0.0973 ± 0.0048 W/m/K
same,thermal conductivity,"272.91 K, 30000 kPa",0.0926 ± 0.0046 W/m/K
same,thermal conductivity,"273.36 K, 10000 kPa",0.0847 ± 0.0043 W/m/K
same,thermal conductivity,"273.45 K, 20000 kPa",0.0896 ± 0.0045 W/m/K
same,thermal conductivity,"273.49 K, 1000 kPa",0.0814 ± 0.0041 W/m/K
same,thermal conductivity,"273.66 K, 10000 kPa",0.0851 ± 0.0043 W/m/K
same,thermal conductivity,"273.82 K, 5000 kPa",0.0833 ± 0.0042 W/m/K
same,thermal conductivity,"273.85 K, 1000 kPa",0.081 ± 0.004 W/m/K
same,thermal conductivity,"273.86 K, 1000 kPa",0.0812 ± 0.0041 W/m/K
same,thermal conductivity,"273.95 K, 30000 kPa",0.0929 ± 0.0046 W/m/K
same,thermal conductivity,"274.06 K, 20000 kPa",0.0895 ± 0.0045 W/m/K
same,thermal conductivity,"274.16 K, 5000 kPa",0.0832 ± 0.0042 W/m/K
same,thermal conductivity,"274.27 K, 10000 kPa",0.0855 ± 0.0043 W/m/K
same,thermal conductivity,"274.33 K, 30000 kPa",0.0927 ± 0.0046 W/m/K
same,thermal conductivity,"274.57 K, 20000 kPa",0.0892 ± 0.0045 W/m/K
same,thermal conductivity,"274.63 K, 5000 kPa",0.0835 ± 0.0042 W/m/K
same,thermal conductivity,"293.15 K, 10000 kPa",0.0802 ± 0.0041 W/m/K
same,thermal conductivity,"293.22 K, 1000 kPa",0.0762 ± 0.0039 W/m/K
same,thermal conductivity,"293.42 K, 30000 kPa",0.0894 ± 0.0045 W/m/K
same,thermal conductivity,"293.49 K, 1000 kPa",0.0767 ± 0.004 W/m/K
same,thermal conductivity,"293.61 K, 5000 kPa",0.0782 ± 0.004 W/m/K
same,thermal conductivity,"293.65 K, 10000 kPa",0.0805 ± 0.0041 W/m/K
same,thermal conductivity,"293.76 K, 5000 kPa",0.0781 ± 0.004 W/m/K
same,thermal conductivity,"293.76 K, 30000 kPa",0.0891 ± 0.0045 W/m/K
same,thermal conductivity,"293.85 K, 10000 kPa",0.0802 ± 0.0041 W/m/K
same,thermal conductivity,"293.95 K, 5000 kPa",0.0783 ± 0.004 W/m/K
same,thermal conductivity,"294.47 K, 1000 kPa",0.0764 ± 0.0039 W/m/K
same,thermal conductivity,"294.54 K, 30000 kPa",0.0893 ± 0.0045 W/m/K
same,thermal conductivity,"312.5 K, 5000 kPa",0.0705 ± 0.0037 W/m/K
same,thermal conductivity,"312.59 K, 1000 kPa",0.0682 ± 0.0036 W/m/K
same,thermal conductivity,"312.89 K, 5000 kPa",0.0709 ± 0.0037 W/m/K
same,thermal conductivity,"313.01 K, 1000 kPa",0.0683 ± 0.0036 W/m/K
same,thermal conductivity,"313.28 K, 5000 kPa",0.0706 ± 0.0037 W/m/K
same,thermal conductivity,"313.39 K, 1000 kPa",0.068 ± 0.0036 W/m/K
same,thermal conductivity,"313.53 K, 20000 kPa",0.0809 ± 0.0041 W/m/K
same,thermal conductivity,"313.55 K, 10000 kPa",0.0757 ± 0.0039 W/m/K
same,thermal conductivity,"313.85 K, 10000 kPa",0.0761 ± 0.0039 W/m/K
same,thermal conductivity,"313.86 K, 30000 kPa",0.0853 ± 0.0043 W/m/K
same,thermal conductivity,"314.04 K, 10000 kPa",0.0758 ± 0.0039 W/m/K
same,thermal conductivity,"314.06 K, 30000 kPa",0.085 ± 0.004 W/m/K
same,thermal conductivity,"314.2 K, 20000 kPa",0.0809 ± 0.0041 W/m/K
same,thermal conductivity,"315.13 K, 20000 kPa",0.0815 ± 0.0042 W/m/K
same,thermal conductivity,"315.13 K, 30000 kPa",0.0852 ± 0.0043 W/m/K
same,thermal conductivity,"332.48 K, 10000 kPa",0.0699 ± 0.0037 W/m/K
same,thermal conductivity,"332.49 K, 5000 kPa",0.0654 ± 0.0035 W/m/K
same,thermal conductivity,"332.51 K, 1000 kPa",0.0623 ± 0.0034 W/m/K
same,thermal conductivity,"332.72 K, 30000 kPa",0.0805 ± 0.0041 W/m/K
same,thermal conductivity,"332.79 K, 20000 kPa",0.0756 ± 0.0039 W/m/K
same,thermal conductivity,"332.84 K, 30000 kPa",0.0813 ± 0.0041 W/m/K
same,thermal conductivity,"332.85 K, 10000 kPa",0.0695 ± 0.0037 W/m/K
same,thermal conductivity,"332.87 K, 1000 kPa",0.0624 ± 0.0034 W/m/K
same,thermal conductivity,"332.89 K, 5000 kPa",0.0651 ± 0.0035 W/m/K
same,thermal conductivity,"333.2 K, 10000 kPa",0.0695 ± 0.0037 W/m/K
same,thermal conductivity,"333.24 K, 1000 kPa",0.0623 ± 0.0034 W/m/K
same,thermal conductivity,"333.26 K, 5000 kPa",0.0648 ± 0.0035 W/m/K
same,thermal conductivity,"333.48 K, 30000 kPa",0.0802 ± 0.0041 W/m/K
same,thermal conductivity,"333.59 K, 20000 kPa",0.0755 ± 0.0039 W/m/K
same,thermal conductivity,"334.42 K, 20000 kPa",0.0761 ± 0.0039 W/m/K
same,thermal conductivity,"353.02 K, 30000 kPa",0.0749 ± 0.0039 W/m/K
same,thermal conductivity,"353.17 K, 10000 kPa",0.0636 ± 0.0034 W/m/K
same,thermal conductivity,"353.29 K, 20000 kPa",0.0705 ± 0.0037 W/m/K
same,thermal conductivity,"353.35 K, 2000 kPa",0.0565 ± 0.0032 W/m/K
same,thermal conductivity,"353.35 K, 5000 kPa",0.0593 ± 0.0033 W/m/K
same,thermal conductivity,"353.57 K, 30000 kPa",0.0744 ± 0.0039 W/m/K
same,thermal conductivity,"353.68 K, 2000 kPa",0.0564 ± 0.0032 W/m/K
same,thermal conductivity,"353.74 K, 5000 kPa",0.0592 ± 0.0033 W/m/K
same,thermal conductivity,"353.74 K, 20000 kPa",0.0701 ± 0.0037 W/m/K
same,thermal conductivity,"353.82 K, 10000 kPa",0.0635 ± 0.0034 W/m/K
same,thermal conductivity,"353.95 K, 30000 kPa",0.0741 ± 0.0039 W/m/K
same,thermal conductivity,"354.09 K, 20000 kPa",0.0699 ± 0.0037 W/m/K
same,thermal conductivity,"354.12 K, 2000 kPa",0.056 ± 0.0032 W/m/K
same,thermal conductivity,"354.24 K, 10000 kPa",0.0633 ± 0.0034 W/m/K
same,thermal conductivity,"354.4 K, 5000 kPa",0.0594 ± 0.0033 W/m/K
same,thermal conductivity,"373.08 K, 10000 kPa",0.0597 ± 0.0033 W/m/K
same,thermal conductivity,"373.15 K, 30000 kPa",0.0726 ± 0.0038 W/m/K
same,thermal conductivity,"373.22 K, 5000 kPa",0.0554 ± 0.0031 W/m/K
same,thermal conductivity,"373.4 K, 20000 kPa",0.0672 ± 0.0036 W/m/K
same,thermal conductivity,"373.46 K, 3000 kPa",0.0525 ± 0.003 W/m/K
same,thermal conductivity,"373.56 K, 10000 kPa",0.0596 ± 0.0033 W/m/K
same,thermal conductivity,"373.72 K, 5000 kPa",0.0559 ± 0.0031 W/m/K
same,thermal conductivity,"373.8 K, 30000 kPa",0.0727 ± 0.0038 W/m/K
same,thermal conductivity,"373.84 K, 3000 kPa",0.0524 ± 0.003 W/m/K
same,thermal conductivity,"373.87 K, 20000 kPa",0.0677 ± 0.0036 W/m/K
same,thermal conductivity,"374.1 K, 10000 kPa",0.0601 ± 0.0033 W/m/K
same,thermal conductivity,"374.21 K, 30000 kPa",0.0724 ± 0.0038 W/m/K
same,thermal conductivity,"374.24 K, 5000 kPa",0.0557 ± 0.0031 W/m/K
same,thermal conductivity,"374.26 K, 3000 kPa",0.0526 ± 0.003 W/m/K
same,thermal conductivity,"374.57 K, 20000 kPa",0.0672 ± 0.0036 W/m/K
